Measurements from patent US8530667B2, “Herbicides” (Syngenta Limited, priority 2007, dated 2013).

Tests used:
Type in all cases: in vivo
[1] = tested on: Alopecurus myosuroides (ALOMY); assay: Example B pre-emergence herbicidal activity, glasshouse pot test; conditions: 312 h, Rate 250 g/ha, evaluated after 13 days, read-out: Pre-Emergence Activity ALOMY (100=total damage to plant; 0=no damage to plant)
Experimental: (§1) Seeds of a variety of test species were sown in standard soil in pots. After cultivation for one day (pre-emergence) or after 8 days cultivation (post-emergence) under controlled conditions in a glasshouse (at 24/16° C., day/night; 14 hours light; 65% humidity), the plants were sprayed with an aqueous spray solution derived from the formulation of the technical active ingredient in acetone/water (50:50) solution containing 0.5% Tween 20 (polyoxyethelyene sorbitan monolaurate, CAS RN 9005-64-5). The test plants were then grown in a glasshouse under controlled conditions in a glasshouse (at 24/16° C., day/night; 14 hours light; 65% humidity) and watered twice daily. After 13 days for pre and post-emergence, the test was evaluated (100=total damage to plant; 0=no damage to plant). Alopecurus myosuroides (ALOMY), Avena fatua (AVEFA), Setaria faberi (SETFA), Echinochloa crus-galli (ECHCG) and Amaranthus retoflexus (AMARE)

[2] = tested on: Amaranthus retoflexus (AMARE); assay: as above; conditions: Amaranthus retroflexus, 312 h, Rate 250 g/ha, evaluated after 13 days, read-out: Pre-Emergence Activity AMARE (100=total damage to plant; 0=no damage to plant)
Experimental: as §1

Avena fatua (AVEFA) [3] = assay: as above; conditions: 312 h, Rate 250 g/ha, evaluated after 13 days, read-out: Pre-Emergence Activity AVEFA (100=total damage to plant; 0=no damage to plant)
Experimental: as §1

[4] = tested on: Echinochloa crus-galli (ECHCG); assay: as above; conditions: 312 h, Rate 250 g/ha, evaluated after 13 days, read-out: Pre-Emergence Activity ECHCG (100=total damage to plant; 0=no damage to plant)
Experimental: as §1

Setaria faberi (SETFA) [5] = assay: as above; conditions: 312 h, Rate 250 g/ha, evaluated after 13 days, read-out: Pre-Emergence Activity SETFA (100=total damage to plant; 0=no damage to plant)
Experimental: as §1

[6] = tested on: Alopecurus myosuroides (ALOMY); assay: Example B post-emergence herbicidal activity, glasshouse pot test; conditions: 312 h, rate 250 g/ha, evaluated after 13 days, read-out: Post-emergence activity ALOMY (100=total damage to plant; 0=no damage to plant)
Experimental: as §1

[7] = tested on: Amaranthus retoflexus (AMARE); assay: as above; conditions: Amaranthus retroflexus, 312 h, rate 250 g/ha, evaluated after 13 days, read-out: Post-emergence activity AMARE (100=total damage to plant; 0=no damage to plant)
Experimental: as §1

Avena fatua (AVEFA) [8] = assay: as above; conditions: 312 h, rate 250 g/ha, evaluated after 13 days, read-out: Post-emergence activity AVEFA (100=total damage to plant; 0=no damage to plant)
Experimental: as §1

[9] = tested on: Echinochloa crus-galli (ECHCG); assay: as above; conditions: 312 h, rate 250 g/ha, evaluated after 13 days, read-out: Post-emergence activity ECHCG (100=total damage to plant; 0=no damage to plant)
Experimental: as §1

Setaria faberi (SETFA) [10] = assay: as above; conditions: 312 h, rate 250 g/ha, evaluated after 13 days, read-out: Post-emergence activity SETFA (100=total damage to plant; 0=no damage to plant)
Experimental: as §1

SMILES	pest or weed control at 250 g/ha [1]	pest or weed control at 250 g/ha [2]	pest or weed control at 250 g/ha (Avena fatua (AVEFA) [3])	pest or weed control at 250 g/ha [4]	pest or weed control at 250 g/ha (Setaria faberi (SETFA) [5])	pest or weed control at 250 g/ha [6]	pest or weed control at 250 g/ha [7]	pest or weed control at 250 g/ha (Avena fatua (AVEFA) [8])	pest or weed control at 250 g/ha [9]	pest or weed control at 250 g/ha (Setaria faberi (SETFA) [10])
Cc1cc(Br)ccc1-c1nc(C2=C(OC(=O)C(C)(C)C)[C@@H]3[C@H](C2=O)[C@H]2CC[C@@H]3O2)c(C)s1 (racemic) [Compound P7]	100%	0%	100%	100%	100%	100%	0%	100%	100%	100%
CCc1sc(-c2ccc(Br)cc2C)nc1C1=C(OC(=O)c2ccc(Cl)cc2)[C@@H]2[C@H](C1=O)[C@H]1CC[C@@H]2O1 (racemic) [Compound P8]	90%	0%	30%	100%	100%	100%	0%	100%	100%	100%
Cc1sc(-c2ccc(OC(F)F)cc2Cl)nc1C1=C(OC(=O)C(C)(C)C)[C@@H]2[C@H](C1=O)[C@H]1CC[C@@H]2O1 (racemic) [Compound P9]	70%	0%	50%	90%	90%	100%	0%	90%	100%	100%
CC(=O)OC1=C(c2nc(-c3ccc(OC(F)F)cc3F)sc2C)C(=O)[C@H]2[C@@H]1[C@@H]1CC[C@H]2O1 (racemic) [Compound P10]	90%	0%	100%	100%	100%	100%	20%	100%	100%	100%
Cc1ccc(-c2nc(C3C(=O)[C@@H]4[C@H](C3=O)[C@H]3CC[C@@H]4O3)c(C)s2)cc1 (stereo partly drawn) [Compound T20]	50%	0%	60%	70%	80%	90%	0%	100%	100%	100%
CCc1sc(-c2ccc(Br)cc2)nc1C1C(=O)[C@@H]2[C@H](C1=O)[C@H]1CC[C@@H]2O1 (stereo partly drawn) [Compound T29]	50%	20%	90%	90%	90%	100%	0%	100%	100%	100%
Cc1sc(-c2ccc(Cl)c(Cl)c2)nc1C1C(=O)[C@@H]2[C@H](C1=O)[C@H]1CC[C@@H]2O1 (stereo partly drawn) [Compound T31]	60%	20%	70%	90%	90%	60%	0%	50%	80%	70%
Cc1sc(-c2cccs2)nc1C1C(=O)[C@@H]2[C@H](C1=O)[C@H]1CC[C@@H]2O1 (stereo partly drawn) [Compound T32]	0%	0%	0%	0%	40%	0%	0%	0%	30%	70%
Cc1sc(-c2ccc(I)cc2)nc1C1C(=O)[C@@H]2[C@H](C1=O)[C@H]1CC[C@@H]2O1 (stereo partly drawn) [Compound T33]	90%	0%	0%	100%	100%	100%	60%	100%	100%	100%
CCc1sc(-c2ccc(Br)cc2C)nc1C1C(=O)[C@@H]2[C@H](C1=O)[C@H]1CC[C@@H]2O1 (stereo partly drawn) [Compound T35]	100%	0%	100%	100%	100%	100%	0%	100%	100%	100%
Cc1sc(-c2ccc(Br)cc2F)nc1C1C(=O)[C@@H]2[C@H](C1=O)[C@H]1CC[C@@H]2O1 (stereo partly drawn) [Compound T36]	90%	0%	80%	100%	100%	100%	30%	100%	100%	100%
Cc1sc(-c2ccc(Cl)s2)nc1C1C(=O)[C@@H]2[C@H](C1=O)[C@H]1CC[C@@H]2O1 (stereo partly drawn) [Compound T37]	30%	0%	0%	40%	90%	50%	0%	10%	90%	90%
Cc1sc(-c2ccc(Br)cn2)nc1C1C(=O)[C@@H]2[C@H](C1=O)[C@H]1CC[C@@H]2O1 (stereo partly drawn) [Compound T38]	0%	0%	0%	40%	90%	90%	0%	90%	100%	100%
Cc1cc(Br)ccc1-c1nc(C2C(=O)[C@@H]3[C@H](C2=O)[C@H]2CC[C@@H]3O2)c(C)s1 (stereo partly drawn) [Compound T39]	70%	0%	90%	80%	90%	100%	0%	100%	100%	100%
CCc1sc(COc2ccc(Cl)cc2)nc1C1C(=O)[C@@H]2[C@H](C1=O)[C@H]1CC[C@@H]2O1 (stereo partly drawn) [Compound T40]	90%	0%	40%	100%	100%	100%	0%	70%	100%	100%
